Structures can show the parent of a compound that is named as a salt.
What was measured:
Format in all cases: biochemical
human factor XIa = biological target: T1, human factor XIa (Homo sapiens, UniProt P03951); assay: Measurement of FXIa inhibition (fluorogenic peptide substrate); settings: human factor XIa from Kordia, substrate Boc-Glu(OBzl)-Ala-Arg-AMC, 30 min at 22° C.; read-out: IC50 (FXIa inhibition)
T1 construct: purchased Kordia

human and animal plasma = assay: Anticoagulatory activity: activated partial thromboplastin time (aPTT) in plasma; settings: in vitro in plasma, C.K. Prest kit, 37° C. for 3 minutes; plasma species of Table B not stated
Summary of the method: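 Citrated plasma (1:9, 0.11 M citrate; 4000 g, 15 min) from human, mouse, rat, rabbit, pig or dog. Value is concentration giving 1.5-fold aPTT prolongation.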

human plasmin = biological target: T2, human plasmin (Homo sapiens, UniProt P00747); assay: Measurement of plasmin inhibition (fluorogenic peptide substrate); settings: plasmin from Kordia, substrate MeOSuc-Ala-Phe-Lys-AMC, 30 min at 22° C.
T2 construct: purchased Kordia
Description: The plasmin inhibition of the inventive substances is determined using a biochemical test system which utilizes the reaction of a peptidic plasmin substrate to determine the enzymatic activity of human plasmin. Here, plasmin cleaves from the peptic plasmin substrate the C-terminal aminomethylcoumarin (AMC), the fluorescence of which is measured. The determinations are carried out in microtitre plates.
Test substances are dissolved in dimethyl sulphoxide and serially diluted in dimethyl sulphoxide (3000 μM to 0.0078 μM; resulting final concentrations in the test: 50 μM to 0.00013 μM). In each case 1 μl of the diluted substance solutions are placed into the wells of white microtitre plates from Greiner (384 wells). Subsequently, the following are added successively: 20 μl of assay buffer (50 mmol/1 Tris buffer pH 7.4; 100 mmol/1 sodium chloride; 5 mmol/1 calcium chloride; 0.1% bovine serum albumin) and 20 μl of plasmin from Kordia (0.3 μg/ml in assay buffer). After 15 min of incubation, the enzyme reaction is started by addition of 20 μl of the plasmin substrate MeOSuc-Ala-Phe-Lys-AMC dissolved in assay buffer (150 μM in assay buffer) from Bachem, the mixture is incubated at room temperature (22° C.) for 30 min and fluorescence is then measured (excitation: 360 nm, emission: 460 nm). The measured emissions of the test batches with test substance are compared to those of control batches without test substance (only dimethyl sulphoxide instead of test substance in dimethyl sulphoxide), and the IC50 values are calculated from the concentration/activity relationships.

T2 sequence (P00747 581-810 limits assumed): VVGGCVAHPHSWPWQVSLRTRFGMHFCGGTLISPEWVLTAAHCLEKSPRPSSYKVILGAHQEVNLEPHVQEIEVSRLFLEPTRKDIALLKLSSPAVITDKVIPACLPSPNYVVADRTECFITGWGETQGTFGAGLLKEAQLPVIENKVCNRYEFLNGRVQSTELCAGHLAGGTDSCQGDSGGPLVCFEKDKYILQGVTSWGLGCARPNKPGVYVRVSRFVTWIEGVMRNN
T2 sequence (P00747 97-580 partner limits assumed): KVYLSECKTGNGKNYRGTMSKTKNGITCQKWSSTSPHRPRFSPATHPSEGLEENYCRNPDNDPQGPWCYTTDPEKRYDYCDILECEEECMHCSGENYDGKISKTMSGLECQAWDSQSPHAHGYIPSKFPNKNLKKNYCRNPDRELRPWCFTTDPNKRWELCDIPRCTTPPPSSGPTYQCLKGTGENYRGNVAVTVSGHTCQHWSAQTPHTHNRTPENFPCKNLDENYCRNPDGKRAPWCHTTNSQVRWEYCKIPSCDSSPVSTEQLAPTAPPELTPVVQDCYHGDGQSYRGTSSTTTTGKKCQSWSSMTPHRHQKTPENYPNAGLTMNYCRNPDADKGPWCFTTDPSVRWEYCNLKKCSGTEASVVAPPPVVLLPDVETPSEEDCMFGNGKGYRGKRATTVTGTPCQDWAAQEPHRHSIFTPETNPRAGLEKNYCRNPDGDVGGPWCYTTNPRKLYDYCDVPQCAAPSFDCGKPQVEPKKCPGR
T1 sequence (P03951 388-625 limits assumed): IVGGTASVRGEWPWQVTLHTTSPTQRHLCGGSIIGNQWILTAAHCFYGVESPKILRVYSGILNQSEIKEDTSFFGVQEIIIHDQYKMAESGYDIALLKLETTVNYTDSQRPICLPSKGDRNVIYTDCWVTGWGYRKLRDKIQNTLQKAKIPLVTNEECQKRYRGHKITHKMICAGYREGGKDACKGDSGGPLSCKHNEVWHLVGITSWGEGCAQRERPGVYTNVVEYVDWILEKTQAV
T1 sequence (P03951 19-387 partner limits assumed): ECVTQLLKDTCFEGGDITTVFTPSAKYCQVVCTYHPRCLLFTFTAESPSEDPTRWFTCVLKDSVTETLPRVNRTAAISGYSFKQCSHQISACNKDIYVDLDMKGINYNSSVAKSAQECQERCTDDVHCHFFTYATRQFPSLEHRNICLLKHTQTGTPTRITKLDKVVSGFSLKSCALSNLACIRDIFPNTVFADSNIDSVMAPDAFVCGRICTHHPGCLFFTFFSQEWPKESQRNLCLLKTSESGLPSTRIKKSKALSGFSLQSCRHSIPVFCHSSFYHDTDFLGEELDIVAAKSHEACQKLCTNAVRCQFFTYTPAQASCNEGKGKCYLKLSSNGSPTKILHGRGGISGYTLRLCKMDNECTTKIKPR

SMILES	IC50 (human factor XIa) [nM]	aPTT (concentration of test substance which brings about a 1.5-fold extension of the aPTT) (human and animal plasma) [µmol/L]	IC50 (human plasmin) [nM]
Cc1nc(C(=O)NC(C)C(F)(F)F)ccc1-c1ccc(C[C@H](NC(=O)[C@H]2CC[C@H](CN)CC2)C(=O)Nc2ccc3cn[nH]c3c2)cc1 (stereo partly drawn) [Example 35, N-alpha-{[trans-4-(Aminomethyl)cyclohexyl]carbonyl}-N-1H-indazol-6-yl-4-{2-methyl-6-[(1,1,1-trifluoropropan-2-yl)carbamoyl]pyridin-3-yl}-L-phenylalaninamide hydrochloride]	8.7	0.49	1.1
Cc1nc(C(=O)NC(C)C(F)(F)F)ccc1-c1ccc(C[C@H](NC(=O)[C@H]2CC[C@H](CN)CC2)C(=O)Nc2ccc3[nH]c(=O)[nH]c3c2)cc1 (stereo partly drawn) [Example 36, N-alpha-{[trans-4-(Aminomethyl)cyclohexyl]carbonyl}-4-{2-methyl-6-[(1,1,1-trifluoropropan-2-yl)carbamoyl]pyridin-3-yl}-N-(2-oxo-2,3-dihydro-1H-benzimidazol-5-yl)-L-phenylalaninamide hydrochloride]	11	0.21	1.2
Cc1nc(C(=O)NC2CCC2)ccc1-c1ccc(C[C@H](NC(=O)[C@H]2CC[C@H](CN)CC2)C(=O)Nc2ccc3[nH]c(=O)[nH]c3c2)cc1 [Example 37, N-alpha-{[trans-4-(Aminomethyl)cyclohexyl]carbonyl}-4-[6-(cyclobutylcarbamoyl)-2-methylpyridin-3-yl]-N-(2-oxo-2,3-dihydro-1H-benzimidazol-5-yl)-L-phenylalaninamide hydrochloride]	13	0.2	1.5
Cc1nc(C(=O)NC(C)C)ccc1-c1ccc(C[C@H](NC(=O)[C@H]2CC[C@H](CN)CC2)C(=O)Nc2cc(Cl)c3oc(=O)[nH]c3c2)cc1 [Example 38, N-alpha-{[trans-4-(Aminomethyl)cyclohexyl]carbonyl}-N-(7-chloro-2-oxo-2,3-dihydro-1,3-benzoxazol-5-yl)-4-[6-(isopropylcarbamoyl)-2-methylpyridin-3-yl]-L-phenylalaninamide hydrochloride]	14	0.99	0.8
Cc1nc(C(=O)NC(C)C)ccc1-c1ccc(C[C@H](NC(=O)[C@H]2CC[C@H](CN)CC2)C(=O)Nc2ccc3c(=O)[nH][nH]c3c2)cc1 [Example 39, N-alpha-{[trans-4-(Aminomethyl)cyclohexyl]carbonyl}-4-[6-(isopropylcarbamoyl)-2-methylpyridin-3-yl]-N-(3-oxo-2,3-dihydro-1H-indazol-6-yl)-L-phenylalaninamide hydrochloride]	4.3	0.27	1.2

Source: patent publication US20160222056A1, “SUBSTITUTED PHENYLALANINE DERIVATIVES” (BAYER PHARMA AKTIENGESELLSCHAFT, priority 2013, published 2016)
